These results are taken from PubChem BioAssay (NCI).

Holding throughout (experiment): growth of human tumour cells (NCI), 48 h
The test system of assay [1] is NCI/ADR-RES ovarian.
Assay [2] has as its system M14 melanoma.
Assay [3] concerns CAKI-1 renal.
For assay [4], the system named is MOLT-4 leukemia.
Assay [5] has as its system MALME-3M melanoma.
Assay [6] deals with NCI-H23 lung.
The subject of assay [7] is LOX IMVI melanoma.
The test system of assay [8] is SNB-19 CNS.
Assay [9] relates to A498 renal.
Assay [10] relates to OVCAR-3 ovarian.

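96-well plates; 48 h exposure; 5 concentrations. Endpoints by linear interpolation between flanking doses. Not reached: highest tested concentration assigned. GI50 = concentration required for 50% inhibition of growth. Definition used: TGI = concentration required for complete inhibition of growth.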

Consider `O=c1[nH]ccc2nc(N3CCC(O)CC3)nc(Nc3cccc(C(F)(F)F)c3)c12`, for which the GI50 in [1] was 2.37 µM; in assay [2] it was 1.55 µM; in assay [3], 0.282 µM; in assay [4] it was 2.24 µM; in assay [5] it was 2.61 µM; in assay [6], 3.24 µM. Moreover, the GI50 was 1.42 µM in [7], 18.1 µM in assay [8], 2.5 µM in assay [9] and 1.34 µM in [10]. The TGI in [1] came out at 7.33 µM; in [2] it was 8.23 µM; in assay [3] it was 6.3 µM; in assay [4] it was 7.75 µM; in assay [5] it was 7.87 µM; in assay [6], 13.9 µM. The TGI in assay [7] was 16.6 µM; in [8] it was above 100 µM; in assay [9] it was above 100 µM; in assay [10], 3.98 µM.
Take `C[C@@H]1N=C(c2ccc(Br)cc2)Nc2nc3ccccn3c2C1=O`: the GI50 in assay [1] was 7.45 µM; in [2], 3.6 µM; in assay [3] it was 3.09 µM; in [4], 12.8 µM; in [5], 15.2 µM; in [6], 25.4 µM. The GI50 in assay [7] was 6.34 µM; in assay [8], 7.45 µM; in [9] it was 3.26 µM; in [10] it was 3.34 µM. Also, the TGI was above 100 µM in [1]; 48.2 µM in assay [2]; above 100 µM in assay [3]; above 100 µM in assay [4]; above 100 µM in [5]; above 100 µM in [6]. Moreover, the TGI in [7] was above 100 µM; in [8], above 100 µM; in assay [9] it was 38.2 µM; in assay [10] it was 17.8 µM.
`c1cc(OCCN2CCCCC2)ccc1CNc1ccc2nc(CCC3CCCCC3)[nH]c2c1`: the GI50 in assay [1] is 2.21 µM; in [2] it was 1.72 µM; in assay [3] it was 1.96 µM; in assay [4], 2.01 µM; in assay [5], 1.62 µM; in assay [6], 2.03 µM. Besides, the GI50 was 1.75 µM in assay [7], 3.05 µM in assay [8], 1.67 µM in [9] and 1.73 µM in assay [10]. In addition, the TGI in assay [1] came to 5.74 µM; in [2], 3.38 µM; in assay [3] it was 3.93 µM; in assay [4], 6.2 µM; in [5], 3.14 µM; in assay [6], 4.91 µM. Besides, the TGI came to 3.19 µM in [7], 10.4 µM in [8], 4.08 µM in assay [9] and 3.5 µM in assay [10].
As for `CCCN1CCN(c2ccc3nc(-c4ccc5nc(-c6cc(OC)ccc6OC)[nH]c5c4)[nH]c3c2)CC1`, the GI50 in assay [1] was 1.99 µM; in assay [2], 1.78 µM; in [3], 15.9 µM; in assay [4], 2.09 µM; in [5] it was 20.3 µM; in assay [6] it was 1.93 µM. The GI50 in assay [7] is 1.73 µM; in assay [9], 15.6 µM; in [10] it was 1.84 µM. Moreover, the TGI in assay [1] came out at 4.29 µM; in assay [2], 3.31 µM; in assay [3] it was 30.7 µM; in [4], 4.31 µM; in assay [5], 40.9 µM; in assay [6], 3.85 µM. Further, the TGI in assay [7] came to 3.26 µM; in [9], 30.4 µM; in assay [10] it was 3.39 µM.
`COc1cc2cc(C(=O)Nc3cc(N)c4ccccc4c3CCCl)[nH]c2c(OC)c1OC`: the GI50 is 0.0329 µM in assay [1]; 0.0193 µM in assay [3]; 0.0132 µM in assay [4]; 0.119 µM in assay [5]; 0.0166 µM in assay [6]; 0.0301 µM in assay [7]. For the same compound, the results for the GI50 in [8], in [9] and in assay [10] were 0.122 µM, 0.0271 µM and 0.0262 µM, respectively. The TGI in assay [1] is 1.91 µM; in [5], 0.274 µM; in assay [6] it was 0.264 µM; in assay [7], 1.53 µM; in [8], above 10.2 µM; in assay [9], 0.19 µM.
As to `COc1ccc2c(CN3CCC[C@H]3C(=O)O)cc3cc4c(cc3c2c1)OCO4`, the GI50 in assay [1] is 23.8 µM; in assay [2], 13.3 µM; in assay [3], 25 µM; in assay [4] it was 5.33 µM; in [5], 2.59 µM; in [7], 5.06 µM. The GI50 was 14 µM in [8], 11.1 µM in assay [9] and 12 µM in [10]. Also, the TGI in [1] is above 100 µM; in [2] it was 27.3 µM; in [3] it was 88.6 µM; in assay [4], above 100 µM; in [5], 17.7 µM; in assay [7], 43.6 µM. Further, the TGI in [8] is above 100 µM; in [9], 26.4 µM; in assay [10] it was 63 µM.
With `COc1cc(C(c2cc3c(cc2O)OCO3)N2CCCCC2)cc(OC)c1OC` (stereo not drawn), the TGI in [1] stood at 39.2 µM; in assay [2] it was 18.5 µM; in [3], 27.6 µM; in [5] it was 26.1 µM; in [6], 31.8 µM; in assay [7], 28.4 µM. The TGI came out at 46.9 µM in assay [8], 35.5 µM in assay [9] and 26.9 µM in [10].
As to `COc1cc2c(Oc3ccc4[nH]c(C)cc4c3F)ccnc2cc1OCC1(N)CC1`, the GI50 in assay [1] is 2.31 µM; in [2], 1.02 µM; in assay [3], 1.04 µM; in [4], 0.971 µM; in [5], 1.21 µM; in assay [7], 1.26 µM. For the same compound, the values for the GI50 in [8], in assay [9] and in assay [10] were 1.64 µM, 2.2 µM and 0.809 µM, respectively. For the same compound, the TGI in assay [1] is above 100 µM; in assay [2], 2.53 µM; in assay [3] it was 6.99 µM; in assay [4], 14 µM; in [5], 3.03 µM; in assay [7], 3.2 µM. The TGI in assay [8] stood at 28.1 µM; in assay [9], 19.7 µM; in [10], 24.7 µM.
